Patent publication US10226451B2, “Substituted bicyclic compounds as bromodomain inhibitors” (ZENITH EPIGENETICS LTD, priority 2013, dated 2019)
pIC50: −log10 of the molar value.

Experiments:
[1] = target: T1, Brd4 bromodomain 1 (BRD4(1)) (Homo sapiens, UniProt O60885); assay: Inhibition of tetra-acetylated histone H4 binding to Brd4 bromodomain 1 (HTRF/FRET); settings: tetra-acetylated histone H4 peptide, His-tagged bromodomain 200 nM, 2 h
T1 construct: made in house; host or cells: E. coli BL21(DE3)
Outline: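 N-terminally His-tagged bromodomain (200 nM), expressed in E. coli and purified by Ni affinity and size exclusion, was incubated with biotinylated tetra-acetylated H4 peptide (25-50 nM), Eu-cryptate streptavidin and XL665 anti-His in HEPES pH 7.4 buffer with 0.2% DMSO. Reactions ran 2 h at room temperature. IC50 came from the 665/620 nm fluorescence decrease.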

[2] = system: hApoA-I mRNA in Huh7 cells; assay: Up-regulation of hApoA-1 mRNA transcription in Huh7 cells; type: cell-based, Human; settings: EC170, Huh7 cells, 48 h
Method: In this example, hApoA-I mRNA in tissue culture cells was quantitated to measure the transcriptional up-regulation of hApoA-I when treated with a compound of the present disclosure.
Huh7 cells (2.5×10^5 per well) were plated in a 96-well plate using 100 μL DMEM per well, (Gibco DMEM supplemented with penicillin/streptomycin and 10% FBS), 72 h before the addition of the compound. The cells are treated with increasing concentrations of the compound or DMSO (0.1%), and incubated at 37° C., 5% CO2 for 48 h. Spent media was removed from the Huh-7 cells and placed on ice for immediate use with the “LDH cytotoxicity assay Kit II” from Abcam. The cells remaining in the plate were rinsed with 100 μL PBS. Cells were harvested using the mRNA Catcher PLUS kit according to manufacturer's instructions. The eluted mRNA was then used in a one-step quantitative real-time PCR reaction, using components of the RNA UltraSense™ One-Step Kit (Life Technologies) together with Applied Biosystems TaqMan® primer-probes for hApoA-I and Cyclophilin. Real-time PCR plates were run on a ViiA™7 real time PCR machine (Applied Biosystems), data was analyzed, normalizing the Ct values for hApoA-1 to an internal control, prior to determining the fold induction of each unknown sample, relative to the control.

[3] = system: hIL-6 mRNA in U937 cells; assay: Inhibition of hIL-6 mRNA transcription in LPS-stimulated U937 cells; type: cell-based; settings: Homo sapiens, U-937, PMA-differentiated U937 cells, LPS 1 ug/mL, 3 h, read-out: IL-6 activity
Outline: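 U937 cells were differentiated to macrophages with 60 ng/mL PMA for 3 days, pretreated 1 h with compound in 0.1% DMSO, then stimulated with 1 ug/mL E. coli LPS for 3 h at 37° C. hIL-6 mRNA was quantified by one-step TaqMan RT-qPCR, normalized to cyclophilin, as fold expression versus control.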

[4] = system: Human AML MV-4-11 cells; assay: Inhibition of cell proliferation in MV4-11 cells (CellTiter Aqueous One); type: cell-based; settings: 72 h
Outline: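 MV4-11 cells at 5×10^4/well in IMDM with 10% FBS were exposed to increasing compound concentrations or 0.1% DMSO, in triplicate, for 72 h at 37 °C. A further 3-4 h with CellTiter Aqueous One reagent followed. A490, blank-corrected and expressed relative to DMSO, gave IC50.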

[5] = system: hIL-17 mRNA in human peripheral blood mononuclear cells; assay: Inhibition of hIL-17 mRNA transcription in OKT3-stimulated PBMC; type: cell-based; settings: OKT3 antibody, 6 h, read-out: IL-17 activity
Method: In this example, hIL-17 mRNA in human peripheral blood mononuclear cells were quantitated to measure the transcriptional inhibition of hIL-17 when treated with a compound of the present disclosure.
Human peripheral blood mononuclear cells were plated (2.0×10^5 cells per well) in a 96-well plate in 45 μL OpTimizer T Cell expansion media (Life Technologies) containing 20 ng/ml IL-2 and penicillin/streptomycin. The cells were treated with increasing concentrations of the test compound or DMSO (0.1%), and incubated at 37° C., 5% CO2 for 1 h before addition of 10× stock OKT3 antibody at 10 ug/ml in media. Triplicate wells were used for each concentration. Cells were incubated at 37° C., 5% CO2 for 6 h before the cells were harvested. At time of harvest, cells were pelleted by centrifugation at 800 rpm for 5 min. Cells were harvested using the mRNA Catcher PLUS kit according to manufacturer's instructions. The eluted mRNA was then used in a one-step quantitative real-time PCR reaction, using components of the RNA UltraSense™ One-Step Kit (Life Technologies) together with Applied Biosystems TaqMan® primer-probes for hIL-17 and Cyclophilin. Real-time PCR plates were run on a ViiA™7 real time PCR machine (Applied Biosystems), data was analyzed, normalizing the Ct values for hIL-17 to an internal control, prior to determining the fold induction of each unknown sample, relative to the control.

[6] = system: c-myc in Human AML MV4-11 cells; assay: Inhibition of c-MYC expression (mRNA, real-time PCR) in MV4-11 cells; type: cell-based; settings: 3 h, mRNA by real-time PCR
Outline: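 Cells at 2.5×10^4 per well in IMDM/10% FBS were treated with rising compound concentrations or 0.1% DMSO for 3 h at 37° C., in triplicate. cMYC mRNA was measured by one-step TaqMan qRT-PCR, normalised to cyclophilin, and expressed as fold expression relative to control.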

Row | pIC50 [1] | pIC50 [3] | pIC50 [4] | pIC50 [5] | pIC50 [6] | SMILES | ApoA-1 activity [2]
1 | ≥ 6.52 | ≥ 6.52 | ≥ 6.52 | 5.52 to 6.52 | ≥ 6.52 | Cc1nn(C)cc1-c1cc(-c2c(C)noc2C)cc2[nH]c(=O)n(C)c12 [Example Compound 7, 7-(1,3-dimethyl-1H-pyrazol-4-yl)-5-(3,5-dimethylisoxazol-4-yl)-1-methyl-1H-benzo[d]imidazol-2(3H)-one] | +++ (EC170 value less than or equal to 0.3 μM were deemed to be highly active (+++))
2 | ≥ 6.52 | 5.52 to 6.52 | 5.52 to 6.52 | 5.52 to 6.52 | ≥ 6.52 | COc1ncccc1-c1cc(-c2c(C)noc2C)cc2[nH]c(=O)n(C)c12 [Example Compound 13, 5-(3,5-dimethylisoxazol-4-yl)-7-(2-methoxypyridin-3-yl)-1-methyl-1H-benzo[d]imidazol-2(3H)-one] | +++ (EC170 value less than or equal to 0.3 μM were deemed to be highly active (+++))
